target: T1, ML1a human melatonin receptor (Homo sapiens, UniProt P48039); assay: Melatonergic receptor binding (2-[125I]-iodomelatonin, membranes of NIH-3T3 cells expressing ML1a receptor); settings: 37° C. for 1 hour, read-out: Melatonin Binding Affinity (IC50)
T1 construct: expressed in transfected cells
Description: Melatonergic Receptor Binding Activity
(a) TME=50 mM Tris buffer containing 12.5 mM MgCl2, and 2 mM EDTA, pH 7.4 at 37° C. with concentrated HCl.
(b) Wash buffer: 20 mM Tris base containing 2 mM MgCl2, pH 7.4 at room temperature.
(c) 10^-4 M melatonin (10^-5 M final concentration).
(d) 2-[^125 I]-iodomelatonin, 0.1 M final concentration
The melatonin ML1a receptor cDNA was subcloned into pcDNA3 and introduced into NIH-3T3 cells using Lipofectamine. Transformed NIH-3T3 cells resistant to geneticin (G-418) were isolated, and single colonies expressing high levels of 2[^125 I]-iodomelatonin binding were isolated. Cells are maintained in DMEM supplemented with 10% calf serum and G-418 (0.5 g/liter). Cells are grown to confluency in T-175 flasks, scraped using Hank's balanced salt solution, and frozen at -80° C. For preparing membrane homogenates, pellets are thawed on ice, and resuspended in TME buffer in the presence of 10 μg/ml aprotinin and leupeptin, and 100 μM phenylmethylsulfonylfluoride. The cells were then homogenized using a dounce homogenizer, and centrifuged. The resulting pellet was resuspended with dounce homogenizer in TME (supplemented with the above protease inhibitors) and frozen. On the day of assay, the small aliquot was thawed on ice and resuspended in ice cold TME (1:50-1:100 v/v) and held on ice until assayed.
3. Incubation: 37° C. for 1 hour. Reaction is terminated by filtration. Filters are washed 3 times.
^a = (IC50) values for ML1a human melatonin receptor binding

T1 sequence (P48039 whole entry): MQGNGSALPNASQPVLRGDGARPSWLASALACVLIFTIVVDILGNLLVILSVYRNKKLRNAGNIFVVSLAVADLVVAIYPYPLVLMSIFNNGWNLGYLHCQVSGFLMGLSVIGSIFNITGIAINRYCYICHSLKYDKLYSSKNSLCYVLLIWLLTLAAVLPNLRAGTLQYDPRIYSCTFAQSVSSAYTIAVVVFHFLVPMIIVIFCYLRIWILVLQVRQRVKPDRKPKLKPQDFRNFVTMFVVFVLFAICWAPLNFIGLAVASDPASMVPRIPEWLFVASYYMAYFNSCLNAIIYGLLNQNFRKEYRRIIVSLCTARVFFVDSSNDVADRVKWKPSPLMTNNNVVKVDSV

| IC50 | Compound |
| --- | --- |
| 50 to 200 nM | CC(=O)NC[C@@H]1C[C@@H]1c1cccc2c1CCO2 (relative stereo) [Example 2, (cis)-N-[[2-(2,3-Dihydrobenzofuran-4-yl)cycloprop-1-yl]methyl]acetamide] |
| < 50 nM | CCC(=O)NC[C@@H]1C[C@@H]1c1cccc2c1CCO2 (relative stereo) [Example 1, (cis)-N-[[2-(2,3-Dihydrobenzofuran-4-yl)cycloprop-1-yl]methyl]propanamide] |
| < 50 nM | O=C(NC[C@@H]1C[C@@H]1c1cccc2c1CCO2)C1CC1 (relative stereo) [Example 3, (cis)-N-[[2-(2,3-Dihydrobenzofuran-4-yl)cycloprop-1-yl]methyl]cyclopropane carboxamide] |
| < 50 nM | CCCC(=O)NC[C@@H]1C[C@@H]1c1cccc2c1CCO2 (relative stereo) [Example 4, (cis)-N-[[2-(2,3-Dihydrobenzofuran-4-yl)cycloprop-1-yl]methyl]butyramide] |
| < 50 nM | CC(C)C(=O)NC[C@H]1C[C@H]1c1cccc2c1CCO2 (relative stereo) [Example 5, (cis)-N-[[2-(2,3-Dihydrobenzofuran-4-yl)cycloprop-1-yl]methyl]-2-methyl propanamide] |

From US6214869A, “Heterocyclic cis cyclopropane derivatives as melatonergic agents” (Bristol-Myers Squibb, priority 1999, dated 2001)
